From ChEMBL document CHEMBL1201862, “PubChem BioAssay data set” (2004)
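Following 48 hours of exposure in 96-well plates, responses at five concentrations were used to interpolate endpoints linearly. GI50 marks 50% less growth.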 Activity calls are given as the source filed them. Cut-off read from the data, not from the text of the source: active = GI50 up to about 1.1 µM and inactive = higher.

How the values were obtained:
Assay in all cases: inhibition of tumour cell growth, NCI panel, 48 h
[1] = test system: LXFL 529
[2] = test system: U-251
[3] = test system: SF-539
[4] = test system: A549
[5] = test system: CCRF-CEM
[6] = test system: HCT-15
[7] = test system: HL-60
[8] = test system: LOX IMVI
[9] = test system: HT-29
[10] = test system: NCI-H23
[11] = test system: CAKI-1
[12] = test system: KM12
[13] = test system: SK-MEL-5
[14] = test system: Malme-3M
[15] = test system: NCI-H522
[16] = test system: SN12C
[17] = test system: UO-31
[18] = test system: DMS-114
[19] = test system: M19-MEL
[20] = test system: IGROV-1
[21] = test system: OVCAR-3
[22] = test system: DLD-1
[23] = test system: NCI-H226
[24] = test system: HCC 2998
[25] = test system: SK-MEL-28
[26] = test system: SF-295
[27] = test system: HOP-18
[28] = test system: UACC-62
[29] = test system: SK-MEL-2
[30] = test system: XF498
[31] = test system: RXF 393
[32] = test system: DMS-273
[33] = test system: UACC-257
[34] = test system: EKVX
[35] = test system: SNB-78
[36] = test system: OVCAR-5
[37] = test system: SF-268
[38] = test system: 786-0
[39] = test system: SR
[40] = test system: HOP-92
[41] = test system: SK-OV-3
[42] = test system: M14
[43] = test system: OVCAR-4
[44] = test system: SNB-75
[45] = test system: K562
[46] = test system: RXF 631
[47] = test system: A498
[48] = test system: SNB-19
[49] = test system: KM-20L2
[50] = test system: TK-10
[51] = test system: OVCAR-8
[52] = test system: HCT-116
[53] = test system: MOLT-4
[54] = test system: NCI-H460
[55] = test system: SW-620
[56] = test system: ACHN
[57] = test system: HOP-62
[58] = test system: COLO 205
[59] = test system: RPMI-8226

Measured: GI50

N#CCC(=O)N/N=C(/C(=O)Nc1ccccc1)C1C(=O)N(c2ccccc2)N=C1N (stereo not drawn)
inactive: [1] > 100 µM | [2] > 100 µM | [3] > 100 µM | [4] > 100 µM | [5] > 100 µM | [7] > 100 µM | [8] > 100 µM | [9] > 100 µM | [10] > 100 µM | [11] > 100 µM | [12] > 100 µM | [13] > 100 µM | [14] > 100 µM | [15] > 100 µM | [16] > 100 µM | [17] > 100 µM | [18] > 100 µM | [19] > 100 µM | [20] > 100 µM | [21] > 100 µM | [22] > 100 µM | [23] > 100 µM | [24] > 100 µM | [25] > 100 µM | [26] > 100 µM | [27] > 100 µM | [28] > 100 µM | [29] > 100 µM | [30] > 100 µM | [31] > 100 µM | [32] > 100 µM | [33] > 100 µM | [34] > 100 µM | [35] > 100 µM | [36] > 100 µM | [37] > 100 µM | [38] > 100 µM | [39] > 100 µM | [40] > 100 µM | [41] > 100 µM | [42] > 100 µM | [43] > 100 µM | [44] > 100 µM | [45] > 100 µM | [46] > 100 µM | [47] > 100 µM | [48] > 100 µM | [49] > 100 µM | [50] > 100 µM | [51] > 100 µM | [52] > 100 µM | [53] > 100 µM | [54] > 100 µM | [55] > 100 µM | [56] > 100 µM | [57] > 100 µM | [58] > 100 µM | [59] > 100 µM
> 100 µM: [6]

Cc1nn(-c2ccccc2)c2nc(N3CCOCC3)nnc12
inactive: [1] 53.3 µM | [2] 52.8 µM | [3] 24.4 µM | [4] 94.4 µM | [5] > 100 µM | [8] > 100 µM | [9] > 100 µM | [10] 79.6 µM | [11] 39.6 µM | [12] > 100 µM | [13] 49.2 µM | [14] 64 µM | [16] > 100 µM | [17] 28.6 µM | [18] 34.4 µM | [19] > 100 µM | [20] > 100 µM | [21] 88.7 µM | [22] 59.2 µM | [24] > 100 µM | [25] > 100 µM | [26] > 100 µM | [28] 69.2 µM | [29] 51.3 µM | [30] 51.8 µM | [31] > 100 µM | [32] > 100 µM | [33] > 100 µM | [34] > 100 µM | [35] > 100 µM | [36] > 100 µM | [37] > 100 µM | [38] > 100 µM | [41] > 100 µM | [42] 97.1 µM | [43] 34.7 µM | [44] 40.3 µM | [45] > 100 µM | [46] 92.7 µM | [47] 66.1 µM | [48] > 100 µM | [49] > 100 µM | [50] > 100 µM | [51] 92.5 µM | [52] > 100 µM | [53] 40.6 µM | [54] > 100 µM | [55] > 100 µM | [56] 71.9 µM | [57] > 100 µM | [58] > 100 µM | [59] 46.6 µM
active: [27] < 0.01 µM
65 µM: [6]
